We go through 17 molecules from ChEMBL document CHEMBL2163338, “Development of triazene prodrugs for ADEPT strategy: new insights into drug delivery system based on carboxypeptidase G2 activation” (Bioorg Med Chem Lett, 2012).

Data set [1] is described as follows: Half life in phosphate buffered saline at pH 7.4. It counts as physicochemical.
Data set [2] has as its system Pseudomonas sp. The data set can be described thus: Activity of Pseudomonas sp. carboxypeptidase G2 assessed as compound hydrolysis by Michaelis-Menten plot analysis.
Data set [3] deals with Pseudomonas sp. The data set can be described thus: Activity of Pseudomonas sp. carboxypeptidase G2 assessed as half life of compound hydrolysis by UV spectrophotometric analysis.
Data set [4] relates to Pseudomonas sp. The data set is described as follows: Ratio of Kcat to Km for Pseudomonas sp. carboxypeptidase G2.
In a further data set the target is Albumin (Homo sapiens, UniProt P02768). The data set can be described thus: Binding affinity to human serum albumin by HPLC analysis. Type of data set: ADME. The note with it: isolated protein.
Albumin, sequence (P02768 whole entry): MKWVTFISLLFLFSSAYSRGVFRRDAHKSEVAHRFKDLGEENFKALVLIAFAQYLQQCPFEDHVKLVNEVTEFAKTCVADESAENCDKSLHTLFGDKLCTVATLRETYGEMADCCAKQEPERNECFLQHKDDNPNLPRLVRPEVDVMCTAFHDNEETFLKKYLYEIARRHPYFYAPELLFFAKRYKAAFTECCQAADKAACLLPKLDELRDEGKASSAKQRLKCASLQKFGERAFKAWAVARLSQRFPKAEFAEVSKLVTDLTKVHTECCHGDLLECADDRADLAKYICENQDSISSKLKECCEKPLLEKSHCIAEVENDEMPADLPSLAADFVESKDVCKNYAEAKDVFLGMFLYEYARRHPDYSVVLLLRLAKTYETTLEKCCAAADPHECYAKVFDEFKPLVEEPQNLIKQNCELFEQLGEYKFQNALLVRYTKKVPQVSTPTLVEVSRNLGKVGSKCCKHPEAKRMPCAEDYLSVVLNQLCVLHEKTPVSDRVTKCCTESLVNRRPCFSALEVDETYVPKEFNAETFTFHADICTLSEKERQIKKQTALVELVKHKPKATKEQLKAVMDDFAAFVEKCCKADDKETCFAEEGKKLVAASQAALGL
The nature of data set [5]: Protein binding in human plasma. Type of data set: ADME, cell-free. The note with it: read-out: PPB (converted).

One may read the half-life as how long it takes for the measured level to halve. What is called Km is the concentration of substrate that gives half-maximal velocity. For orientation: Vmax means the top rate of the reaction or transport when substrate is in excess. Broadly, the kcat is the maximal rate divided by the concentration of active sites. As a reminder, the kcat/Km is the turnover number divided by the Michaelis constant.

With `CC(=O)c1ccc(/N=N/N(C)C(=O)N[C@@H](CCC(=O)O)C(=O)O)cc1`, in data set [1], the half-life was 0.0433 h. As to `O=C(O)CC[C@H](NC(=O)Nc1ccc(N(CCCl)CCCl)cc1)C(=O)O`, the half-life in data set [1] was 0.28 h. Besides, in the data set on Pseudomonas sp. [2], the Km came out at 3 µM. Molecule `CN(C(=O)OCc1ccc(NC(=O)N[C@@H](CCC(=O)O)C(=O)O)cc1)c1ccc(N(CCBr)CCBr)cc1` showed a half-life in data set [1] of less than 0.0667 h. `CCOC(=O)c1ccc(/N=N/N(C)C(=O)N[C@@H](CCC(=O)O)C(=O)O)cc1` yielded a half-life in data set [1] of 2.89 h. Further, in the data set on Pseudomonas sp. [3], the T1/2 is 5.7 min. For the same molecule, in the data set with Pseudomonas sp. [2], the Km was found to be 2.73 µM, the Vmax is 1.18 µM/min and the kcat was 1.11 s⁻¹. For the same molecule, the kcat/Km in the data set on Pseudomonas sp. [4] stood at 410000 M⁻¹ s⁻¹. In data set [1], `CN(/N=N/c1ccc(Br)cc1)C(=O)N[C@@H](CCC(=O)O)C(=O)O` registered a half-life of 3.66 h. The result on Albumin was Active.

In data set [1], `CN(C(=O)OCc1ccc(NC(=O)N[C@@H](CCC(=O)O)C(=O)O)cc1)c1ccc(N(CCI)CCI)cc1` yielded a half-life of less than 0.0667 h. With `CN(/N=N/c1ccc(C(N)=O)cc1)C(=O)N[C@@H](CCC(=O)O)C(=O)O`, the half-life in data set [1] is 0.107 h. Molecule `CN(/N=N/c1ccc(C#N)cc1)C(=O)N[C@@H](CCC(=O)O)C(=O)O` gave a half-life in data set [1] of 2.17 h. Further, the T1/2 with Pseudomonas sp. [3] amounted to 3.5 min. In addition, in the data set on Pseudomonas sp. [2], the Km was determined as 17.7 µM, the Vmax turned out to be 4.94 µM/min and the kcat turned out to be 4.64 s⁻¹. The kcat/Km in the data set with Pseudomonas sp. [4] was 260000 M⁻¹ s⁻¹. `O=C(O)CC[C@H](NC(=O)Nc1ccc(N(CCCl)CCCl)c(Cl)c1)C(=O)O` displayed a half-life in data set [1] of less than 0.283 h. On to `CCOC(=O)c1ccc(/N=N/N(C)C(=O)N[C@@H](CCC(=O)OC)C(=O)OC)cc1`, for which the half-life in data set [1] was 102 h.

Regarding `O=C(O)CC[C@H](NC(=O)Nc1ccc(COC(=O)Nc2ccc(N(CCI)CCI)cc2N(CCI)CCI)cc1)C(=O)O`, the half-life in data set [1] was less than 0.0667 h.

Turning to `O=C(O)CC[C@H](NC(=O)c1ccc(N(CCCl)CCCl)cc1)C(=O)O`, the fraction unbound in data set [5] is 0.08. As for `O=C(O)CC[C@H](NC(=O)Nc1ccc(N(CCCl)CCCl)c(F)c1)C(=O)O`, the half-life in data set [1] was less than 0.283 h. For `Cc1ccc(/N=N/N(C)C(=O)N[C@@H](CCC(=O)O)C(=O)O)cc1`, in data set [1], the half-life was determined as 7.63 h. Same read-out and setting: as for `Cc1cc(NC(=O)Nc2ccc(N(CCCl)CCCl)cc2)c2ccccc2n1`, the figure is 16.5 h. On to `CN(C(=O)OCc1ccc(NC(=O)N[C@@H](CCC(=O)O)C(=O)O)cc1)c1ccc(N(CCCl)CCCl)cc1`, for which the Km in the data set on Pseudomonas sp. [2] turned out to be 6.1 µM. On to `O=C(O)CC[C@H](NC(=O)Nc1ccc(COC(=O)Nc2ccc(N(CCBr)CCBr)cc2N(CCBr)CCBr)cc1)C(=O)O`, for which, in data set [1], the half-life was less than 0.0667 h.
